Reference: PubChem BioAssay AID248 (DTP/NCI, 2004)
Toxic doses and inconclusive results are not listed.

Tested on: L1210 leukemia ip in BDF1 mice, survival T/C
Assay: NCI In Vivo Anticancer Drug Screen. Data for tumor model L1210 Leukemia (intraperitoneal) in B6D2F1 (BDF1) mice
Conditions: endpoint: mean survival time, higher = longer survival
In short: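 Antitumor effect is assessed in tumor-bearing animals. Survival in the compound arm is compared with a vehicle-dosed control arm and expressed as their quotient.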

[1] = dose: 100.0 mg/kg/injection, schedule: Q04DX003 (ip), vehicle: saline with Tween-80
[2] = dose: 200.0 mg/kg/injection, schedule: Q04DX003 (ip), vehicle: saline with Tween-80
[3] = dose: 400.0 mg/kg/injection, schedule: Q04DX003 (ip), vehicle: saline with Tween-80
[4] = dose: 100.0 mg/kg/injection, schedule: Q01DX001 (ip), vehicle: saline
[5] = dose: 200.0 mg/kg/injection, schedule: Q01DX001 (ip), vehicle: saline
[6] = dose: 400.0 mg/kg/injection, schedule: Q01DX001 (ip), vehicle: saline
[7] = dose: 25.0 mg/kg/injection, schedule: Q01DX009 (ip), vehicle: Klucel (hydroxypropylcellulose) (HPC)
[8] = dose: 50.0 mg/kg/injection, schedule: Q01DX009 (ip), vehicle: Klucel (hydroxypropylcellulose) (HPC)
[9] = dose: 100.0 mg/kg/injection, schedule: Q04DX003 (ip), vehicle: Klucel (hydroxypropylcellulose) (HPC)

For `[Br][Ge]([c]1ccccc1)([c]1ccccc1)[c]1ccccc1`, the T/C (dose: 25.0 mg/kg/injection, schedule: Q04DX002 (ip), vehicle: saline with Tween-80) was 104 % of control, the T/C (dose: 50.0 mg/kg/injection, schedule: Q04DX002 (ip), vehicle: saline with Tween-80) was 96 % of control and the T/C (dose: 100.0 mg/kg/injection, schedule: Q04DX002 (ip), vehicle: saline with Tween-80) was 104 % of control. The T/C [1] was 94 % of control, the T/C (dose: 200.0 mg/kg/injection, schedule: Q04DX002 (ip), vehicle: saline with Tween-80) was 93 % of control and the T/C [2] was 94 % of control. For the same compound, the T/C [3] was 90 % of control.

With `CC(O)CN(Cc1c(O)ccc2ccccc12)CC(C)OS(C)(=O)=O` (configuration not stated) the T/C [4] was 97 % of control, the T/C [5] was 93 % of control and the T/C [6] was 95 % of control.

In the case of `CN1CCN=C1c1ccc(NC(=O)c2cccc(C(=O)Nc3ccc(C4=NCCN4C)cc3)c2)cc1`, the T/C (dose: 1.88 mg/kg/injection, schedule: Q01DX Z (ip), vehicle: saline) is reported as 107 % of control, the T/C (dose: 3.75 mg/kg/injection, schedule: Q01DX Z (ip), vehicle: saline) is reported as 101 % of control and the T/C (dose: 7.5 mg/kg/injection, schedule: Q01DX Z (ip), vehicle: saline) is reported as 122 % of control. For the same compound, the T/C (dose: 30.0 mg/kg/injection, schedule: Q01DX Z (ip), vehicle: saline) was 154 % of control, the T/C (dose: 60.0 mg/kg/injection, schedule: Q01DX Z (ip), vehicle: saline) was 234 % of control and the T/C (dose: 120.0 mg/kg/injection, schedule: Q01DX Z (ip), vehicle: saline) was 171 % of control. For the same compound, the T/C (dose: 240.0 mg/kg/injection, schedule: Q01DX Z (ip), vehicle: saline) was 119 % of control and the T/C (dose: 480.0 mg/kg/injection, schedule: Q01DX Z (ip), vehicle: saline) was 106 % of control.

`O=c1ccnc(/C=C/c2ccc(Cl)cc2)[nH]1` was tested, and the T/C (dose: 200.0 mg/kg/injection, schedule: Q01DX009 (ip), vehicle: saline with Tween-80) was 87 % of control and the T/C (dose: 400.0 mg/kg/injection, schedule: Q01DX009 (ip), vehicle: saline with Tween-80) was 96 % of control.

With `CN(C)c1nc(N)nc2c1nc(Cl)n2C1OC(CO)C(O)C1O` (configuration not stated) the T/C [4] was 97 % of control, the T/C [5] was 94 % of control and the T/C [6] was 105 % of control.

`C[N+]1(C)C2CC(=O)CC1C1CC12` (configuration not stated) was tested, and the T/C (dose: 50.0 mg/kg/injection, schedule: Q01DX009 (ip), vehicle: saline) was 91 % of control, the T/C (dose: 100.0 mg/kg/injection, schedule: Q01DX009 (ip), vehicle: saline) was 93 % of control and the T/C (dose: 100.0 mg/kg/injection, schedule: Q04DX003 (ip), vehicle: saline) was 100 % of control. The T/C (dose: 200.0 mg/kg/injection, schedule: Q01DX009 (ip), vehicle: saline) was 88 % of control and the T/C (dose: 200.0 mg/kg/injection, schedule: Q04DX003 (ip), vehicle: saline) was 103 % of control.

In the case of `COC(OC)c1[nH]c(=S)[nH]c(=O)c1Cc1c(Cl)cccc1Cl`, the T/C [1] is reported as 101 % of control, the T/C [2] is reported as 103 % of control and the T/C [3] is reported as 94 % of control.

For `CCC1([N+](=O)[O-])COP(=O)(NCc2ccncc2)OC1` (configuration not stated), the T/C (dose: 100.0 mg/kg/injection, schedule: Q01DX001 (ip), vehicle: carboxymethylcellulose (CMC)) was 98 % of control, the T/C (dose: 200.0 mg/kg/injection, schedule: Q01DX001 (ip), vehicle: carboxymethylcellulose (CMC)) was 98 % of control and the T/C (dose: 400.0 mg/kg/injection, schedule: Q01DX001 (ip), vehicle: carboxymethylcellulose (CMC)) was 96 % of control.

For `C=C1C(=O)OC2C1C(O)C(OC(=O)/C(C)=C\C)C(C)=C1CC3OC3(C)C12` (configuration not stated), the T/C (dose: 25.0 mg/kg/injection, schedule: Q01DX001 (ip), vehicle: saline with Tween-80) was 94 % of control and the T/C (dose: 50.0 mg/kg/injection, schedule: Q01DX001 (ip), vehicle: saline with Tween-80) was 105 % of control.

For `Clc1c(CI)ccc(CI)c1Cl`, the T/C (dose: 6.25 mg/kg/injection, schedule: Q01DX009 (ip), vehicle: saline with Tween-80) was 100 % of control, the T/C (dose: 12.5 mg/kg/injection, schedule: Q01DX009 (ip), vehicle: saline with Tween-80) was 92 % of control and the T/C [7] was 93 % of control. The T/C (dose: 25.0 mg/kg/injection, schedule: Q01DX009 (ip), vehicle: saline with Tween-80) was 92 % of control, the T/C [8] was 108 % of control and the T/C (dose: 50.0 mg/kg/injection, schedule: Q01DX009 (ip), vehicle: saline with Tween-80) was 89 % of control. For the same compound, the T/C [9] was 89 % of control.

`Cc1cc(Cl)ccc1NC(=O)COc1ccc(Cl)cc1` was tested, and the T/C [7] was 100 % of control, the T/C [8] was 90 % of control and the T/C (dose: 100.0 mg/kg/injection, schedule: Q01DX009 (ip), vehicle: Klucel (hydroxypropylcellulose) (HPC)) was 88 % of control. For the same compound, the T/C [9] was 104 % of control, the T/C (dose: 200.0 mg/kg/injection, schedule: Q04DX003 (ip), vehicle: Klucel (hydroxypropylcellulose) (HPC)) was 101 % of control and the T/C (dose: 400.0 mg/kg/injection, schedule: Q04DX003 (ip), vehicle: Klucel (hydroxypropylcellulose) (HPC)) was 92 % of control.

With `COC(=O)C1C2C(C)=CC(O)(CC2(C)C)C1C(=O)OC` (configuration not stated) the T/C [4] was 95 % of control, the T/C [5] was 95 % of control and the T/C [6] was 101 % of control.
